From patent publication US4029688A, “Carbamic pesticidal compositions” (priority 1974, dated 1977)
Converted amounts (≈) assume the structure as drawn.

Legend:
[1] = tested on: bean aphid (Aphis fabae Scop.); assay: Bean Aphid Foliage Spray Test; format: in vivo; conditions: Aphis fabae, foliar; Table II, side by side comparison; read-out: Aphids LD50
Experimental: (§1) Suspensions of the test compounds were prepared by dissolving one gram of compound in 50 milliliters of acetone in which had been dissolved 0.1 gram (10 percent of the weight of compound) of an alkylphenoxy polyethoxyethanol surfactant, as an emulsifying or dispersing agent. The resulting solution was mixed into 150 milliliters of water to give roughly 200 milliliters of a suspension containing the compound in finely divided form. The thus-prepared stock suspension contained 0.5 percent by weight of compound. The test concentrations in parts per million by weight employed in the tests described hereinbelow were obtained by appropriate dilutions of the stock suspension with water. The test procedures were as follows:
Adults and nymphal stages of the bean aphid (Aphis fabae Scop.) reared on potted dwarf nasturtium plants at 65°-70° F. and 50-70 percent relative humidity, constituted the test insects. For testing purposes, the number of aphids per pot was standardized to 100-150 by trimming plants containing excess aphids.
The test compounds were formulated by diluting the stock suspension with water to give a suspension containing 500 parts of test compound per million parts of final formulation.
The potted plants (one pot per compound tested) infested with 100-150 aphids, were placed on a revolving turntable and sprayed with 100-110 milliliters of test compound formulation by use of a DeVilbiss spray gun set at 40 psig. air pressure. This application, which lasted 25 seconds, was sufficient to wet the plants to run-off. As a control, 100-110 milliliters of a water-acetone-emulsifier solution containing no test compound were also sprayed on infested plants. After spraying, the pots were placed on their sides on a sheet of white standard mimeograph paper which had been previously ruled to facilitate counting. Temperature and humidity in the test room during the 24 hour holding period were 65°-70° F. and 50-70 percent, respectively. Aphids which fell onto the paper and were unable to remain standing after being uprighted were considered dead. Aphids remaining on the plants were observed closely for movement and those which were unable to move the length of the body upon stimulation by prodding were considered dead. Percent mortality was recorded for various concentration levels.
(§2) In the tests described above, the pesticidal activity of the compounds against aphid, mite, Southern Armyworm, Bean Beetle, house fly and nematode was rated as follows:
(§3) Comparison tests were conducted to assess the biological and chemical properties of certain representative species of the claimed invention in relation to their corresponding N-methyl carbamate compositions. The test procedures described above were employed in these experiments in order to determine the LD50 (number of parts per million of active ingredients required to achieve fifty percent mortality of the insects tested) for each of the compositions tested. In the case of the aphid and mite tests a side by side comparison was made of the N-methyl carbamate composition versus the corresponding perhalomethylsulfenyl derivative.

[2] = Peroral toxicity to mammals (rat); conditions: in vivo, po, Table II
Experimental: Certain of these compositions were also evaluated to determine their peroral toxicity to mammals. The animal selected for this experiment was the rat. The test results obtained are expressed in terms of the number of milligrams of composition per kilogram of weight of the animal required to achieve a mortality rate of 50 percent (LD50).

[3] = tested on: southern armyworm (Prodenia eridania, (Cram.)); assay: Southern Armyworm Leaf Spray Test; format: in vivo; conditions: Spodoptera eridania; Table II; read-out: Armyworm LD50
Experimental: as §1
Larvae of the southern armyworm (Prodenia eridania, (Cram.)), reared on Tendergreen bean plants at a temperature of 80°±5° F. and a relative humidity of 50±5 percent, constituted the test insects.
The test compounds were formulated by diluting the stock suspension with water to give a suspension containing 500 parts of test compound per million parts of final formulation. Potted Tendergreen bean plants of standard height and age were placed on a revolving turntable and sprayed with 100-110 milliliters of test compound formulation by use of a DeVilbiss spray gun set at 10 psig air pressure. This application, which lasted 25 seconds, was sufficient to wet plants to run-off. As a control, 100-110 milliliters of a water-acetone-emulsifier solution containing no test compound were also sprayed on infested plants. When dry, the paired leaves were separated and each one was placed in a 9 centimeter Petri dish lined with moistened filter paper. Five randomly selected larvae were introduced into each dish and the dishes were closed. The closed dishes were labeled and held at 80-85° F. for three days. Although the larvae could easily consume the whole leaf within twenty-four hours, no more food was added. Larvae which were unable to move the length of the body, even upon stimulation by prodding, were considered dead. Percent mortality was recorded for various concentration levels.
as §2, §3

[4] = tested on: Mexican bean beetle (Epilachna varivestis, Muls.); assay: Mexican Bean Beetle Leaf Spray Test; format: in vivo; conditions: Epilachna varivestis; Table II; read-out: Beetle LD50
Experimental: as §1
Fourth instar larvae of the Mexican bean beetle (Epilachna varivestis, Muls.), reared on Tendergreen bean plants at a temperature of 80°±5° F. and 50±5 percent relative humidity, were the test insects.
The test compounds were formulated by diluting the stock suspension with water to give a suspension containing 500 parts of test compound per million parts of final formulation. Potted Tendergreen bean plants of standard height and age were placed on a revolving turntable and sprayed with 100-110 milliliters of test compound formulation by use of a DeVilbiss spray gun set at 10 psig air pressure. This application, which lasted 25 seconds, was sufficient to wet plants to run-off. As a control, 100-110 milliliters of a water-acetone-emulsifier solution containing no test compound were also sprayed on infested plants. When dry, the paired leaves were separated and each was placed in a 9 centimeter Petri dish lined with moistened filter paper. Five randomly selected larvae were introduced into each dish, and the dishes were closed. The closed dishes were labeled and held at a temperature of 80°±5° F. for three days. Although the larvae could easily consume the leaf within 24 to 48 hours, no more food was added. Larvae which were unable to move the length of the body, even upon stimulation, were considered dead.
as §2, §3

[5] = tested on: house flies (Musca domestica, L.); assay: Fly Bait Test; format: in vivo; conditions: Musca domestica; Table II; read-out: Housefly LD50
Experimental: as §1
Four to six day old adult house flies (Musca domestica, L.), reared according to the specifications of the Chemical Specialties Manufacturing Association (Blue Book, McNair-Dorland Co., N. Y. 1954; pages 243-244, 261) under controlled conditions of 80°±5° F. and 50±5 percent relative humidity, were the test insects. The flies were immobilized by anesthetizing with carbon dioxide and twenty-five immobilized individuals, males and females, were transferred to a cage consisting of a standard food strainer about five inches in diameter which was inverted over a wrapping-paper-covered surface. The test compounds were formulated by diluting the stock suspension with a 10 percent (by weight) sugar solution to give a suspension containing 500 parts of test compound per million parts of final formulation, by weight. Ten milliliters of the test formulation were added to a souffle cup containing a one-inch square of an absorbent cotton pad. This bait cup was introduced and centered on the blotting paper under the food strainer prior to admitting the anesthetized flies. The caged flies were allowed to feed on the bait for twenty-four hours, at a temperature of 80°±5° F. and the relative humidity of 50±5 percent.
as §2, §3

Chemical stability = format: physicochemical; conditions: Table II
[6] = tested on: two-spotted mite (Tetranychus urticae Koch); assay: Mite Foliage Spray Test; format: in vivo; conditions: Tetranychus urticae, foliar; Table II, side by side comparison; read-out: Mites Spray LD50
Experimental: as §1
Adults and numphal stages of the two-spotted mite (Tetranychus urticae Koch), reared on Tendergreen bean plants at 80±5 percent relative humidity, were the test organisms. Infested leaves from a stock culture were placed on the primary leaves of two bean plants six to eight inches in height, growing in a 21/2 inch clay pot. 150 -200 Mites, a sufficient number for testing, transferred from the excised leaves to the fresh plants in a period of twenty-four hours. Following the twenty-four hour transfer period, the excised leaves were removed from the infested plants. The test compounds were formulated by diluting the stock suspension with water to give a suspension containing 500 parts of test compound per million parts of final formulation. The potted plants (one pot per compound) were placed on a revolving turntable and sprayed with 100-110 milliliters of test compound formulation by use of a DeVilbiss spray gun set at 40 psig. air pressure. This application, which lasted 25 seconds, was sufficient to wet the plants to run-off. As a control, 100-110 milliliters of a water solution containing acetone and emulsifier in the same concentrations as the test compound formulation, but containing no test compound, were also sprayed on infested plants. The sprayed plants were held at 80±5 percent relative humidity for six days, after which a mortality count of motile forms was made. Microscopic examination for motile forms was made on the leaves of the test plants. Any individual which was capable of locomotion upon prodding was considered living.
as §2, §3

CNC(=O)ON=C(C)SCCC#N [drawing 23 R=H, reference compound]
LC50 [1]: 8 µg/mL (≈ 39.8 µM) | LD50 [2]: 7.7 mg/kg | LC50 [3]: 5 µg/mL (≈ 24.8 µM) | LC50 [4]: 25 µg/mL (≈ 124 µM) | LC50 [5]: 2 µg/mL (≈ 9.94 µM) | Stability (Chemical stability): stable | LC50 [6]: 8 µg/mL (≈ 39.8 µM)

CNC(=O)ON=CC(C)(C)[N+](=O)[O-] [drawing 22 R=H, X=NO2, reference compound]
LC50 [1]: 6 µg/mL (≈ 31.7 µM) | LD50 [2]: 4 mg/kg | LC50 [3]: 55 µg/mL (≈ 291 µM) | LC50 [4]: 80 µg/mL (≈ 423 µM) | LC50 [5]: 3 µg/mL (≈ 15.9 µM) | Stability (Chemical stability): unstable | LC50 [6]: 32 µg/mL (≈ 169 µM)

CNC(=O)ON=CC(C)(C)C#N [drawing 22 R=H, X=CN, reference compound]
LC50 [1]: 12 µg/mL (≈ 70.9 µM) | LD50 [2]: 9.5 mg/kg | LC50 [3]: 55 µg/mL (≈ 325 µM) | LC50 [4]: 65 µg/mL (≈ 384 µM) | LC50 [5]: 3 µg/mL (≈ 17.7 µM) | Stability (Chemical stability): unstable | LC50 [6]: 40 µg/mL (≈ 236 µM)

CN(SC(F)(F)F)C(=O)ON=CC(C)(C)C#N [drawing 22 R=SCF3, X=CN, 2-Methyl-2-cyanopropionaldehyde O-(N-methyl-N-trifluoromethanesulfenylcarbamoyl)oxime]
LC50 [1]: 38 µg/mL (≈ 141 µM) | LC50 [3]: 300 µg/mL (≈ 1110 µM) | LC50 [4]: 40 µg/mL (≈ 149 µM) | LC50 [5]: 14 µg/mL (≈ 52 µM) | Stability (Chemical stability): stable | LC50 [6]: 90 µg/mL (≈ 334 µM)
